Consider three compounds from patent US20090312521A1 (priority 2004, published 2009).

Converted amounts (≈) assume the structure as drawn. “Also recorded” adds a separate entry of the source. Non-standard residues stand in square brackets, D forms with d. Residues, ends and D or L forms follow the SMILES beside them. βAla = NCCC(=O)O

For one series, the system named is Bacillus thuringiensis. The series is described as follows: Additional antimicrobial test (MIC). The class given is cell-based. Conditions: Gram +, BHI, 37 ° C.
Another series has as its system Vibrio cholerae. The series is described as follows: Additional antimicrobial test (MIC). The format is cell-based. Conditions: Gram −, BHI, 37 ° C.
Another series relates to Yersinia pestis KIM5. The class given is cell-based. Conditions: Yersinia pestis KIM5, Gram −, BHI, 22 ° C.
Series [1] concerns Yersinia pseudotuberculosis. The class given is cell-based. Conditions: Gram −, BHI, 35 ° C.
The test system of series [2] is Salmonella typhimurium Rd1. Conditions: Salmonella typhimurium Rd1, Gram −, NB, 37 ° C.
The test system of another series is Pseudomonas auruginosa. Put plainly: Additional antimicrobial test (MIC). The format is cell-based.
The test system of series [3] is Methicillinresistant Staphylococcus aureus (MRSA). Put plainly: Additional antimicrobial test (MIC). The format is cell-based. The following applies: Gram +, NB, 37 ° C.
The subject of a further series is Bacillus anthracis. The class given is cell-based. The following applies: Gram +, BHI, 37 ° C.
Another series concerns Salmonella typhimurium. Conditions: murium.
Series [4] concerns Salmonella typhimurium Rb. The following applies: murium Rb.
A further series has as its system Bacillus globigii. Put plainly: Additional antimicrobial test (MIC). The class given is cell-based. The following applies: Gram +, 37 ° C.
The test system of series [5] is Salmonella typhimurium Rc. Conditions: Gram −, NB, 37 ° C.
Series [6] has as its system Salmonella typhimurium Re. Conditions: Gram −, NB, 37 ° C.
In another series the test system is E. coli ATCC 11775. The format is cell-based. Conditions: ATCC 11775, 24 h. The protocol:
Lyophilized peptides were dissolved in NB to give a concentration of 400 μM and filtered using 0.22 μm filter discs (Millex GV, Durapore). An overnight culture in NB was adjusted to 5×10^6 CFU/mL and inoculated into the micro titer plate wells (10 μL) containing each 100 μL of a serial 2-fold dilution (200-0.4 μM) of the tested peptide in NB. Plates were incubated while gently shaking at 37 ° C. for 24 h. Next, 80 μL suspension of each well was transported into a flat-bottom 96-well plate (Costar). The absorbance was measured at 600 nm using a μQuant micro plate spectrophotometer (Bio-Tek Instruments). All peptides were measured in quadruplo. The peptide with sequence […] (see Otvos Jr, […]; Otvos, B. I.; Hoffmann, […].; Wade, […].; Bulet, P. Protein Sci. 2000, 9, 742) was used as negative control.

The next series can be described thus: mammalian serum. Conditions: up to four hour period; cited from earlier work.
Series [7] relates to aminopeptidase and carboxypeptidase. The series is described as follows: mammalian serum. The following applies: up to four hour; cited from earlier work.

One may read the MIC as the lowest concentration found to suppress growth.

As for `CC[C@H](C)[C@H](NC(=O)[C@@H]1CCCN1C(=O)[C@H](CCCNC(=N)N)NC(=O)[C@@H]1CCCN1C(=O)[C@H](Cc1c[nH]cn1)NC(=O)[C@H](CO)NC(=O)[C@@H](NC(=O)[C@@H]1CCCN1C(=O)[C@H](CCCNC(=N)N)NC(=O)[C@@H]1CCCN1C(=O)[C@@H](NC(=O)[C@H](Cc1ccc(O)cc1)NC(=O)[C@@H]1CCCN1C(=O)[C@H](CCCNC(=N)N)NC(=O)[C@@H]1CCCN1C(=O)[C@H](CCCCN)NC(=O)CN)[C@@H](C)O)[C@@H](C)O)C(=O)N[C@@H](CCCNC(=N)N)C(=O)N[C@H](C(=O)O)C(C)C` [Peptide 4, GKPRP YTPRP TSHPR PIRV] (H-GKPRPYTPRPTSHPRPIRV-OH; N-terminus assumed), the MIC in the series on Shigella sonnei is 100 µM (≈ 221 µg/mL); in the series with Bacillus thuringiensis it was “NI at ≦100 μM”; against Vibrio cholerae it was “NI at ≦100 μM”; in the series on Yersinia pestis KIM5, “NI at ≦100 μM”; with E. coli O157: H7 it was 12.5 µM (≈ 27.7 µg/mL); in series [1] it was “NI at ≦100 μM”. Besides, the MIC in series [2] was 12.5 µM (≈ 27.7 µg/mL); in the series on Pseudomonas auruginosa it was “NI at ≦100 μM”; in series [3] it was “NI at ≦100 μM”; with Bacillus anthracis, “NI at ≦100 μM”; in the series with Klebsiella pneumoniae it was 100 µM (≈ 221 µg/mL); in the series with Salmonella typhimurium it was 12.5 µM (≈ 27.7 µg/mL). For the same compound, the MIC with Salmonella enteritidis is 12.5 µM (≈ 27.7 µg/mL); in series [4] it was 12.5 µM (≈ 27.7 µg/mL); with Bacillus globigii, “NI at ≦100 μM”; in series [5] it was 100 µM (≈ 221 µg/mL); against Salmonella montevideo, 12.5 µM (≈ 27.7 µg/mL); with Salmonella infantis, 25 µM (≈ 55.3 µg/mL). Also, the MIC in [6] is 3.38 µM (≈ 7.48 µg/mL); against Salmonella panama, 12.5 µM (≈ 27.7 µg/mL); in the series with E. coli ATCC 11775, 1.6 µM (≈ 3.54 µg/mL); against Salmonella give, 25 µM (≈ 55.3 µg/mL).
Take `CC[C@H](C)[C@H](NC(=O)[C@@H]1CCCN1C(=O)[C@H](CCCNC(=N)N)NC(=O)[C@@H]1CCCN1C(=O)[C@H](Cc1c[nH]cn1)NC(=O)[C@H](CO)NC(=O)[C@@H](NC(=O)[C@@H]1CCCN1C(=O)[C@H](CCCNC(=N)N)NC(=O)[C@@H]1CCCN1C(=O)[C@@H](NC(=O)[C@H](Cc1ccc(O)cc1)NC(=O)[C@@H]1CCCN1C(=O)[C@H](CCCNC(=N)N)NC(=O)[C@@H]1CCCN1C(=O)[C@H](CCCCN)NC(=O)CCN)[C@@H](C)O)[C@@H](C)O)C(=O)N[C@@H](CCCNC(=N)N)C(=O)N[C@H](C(=O)O)C(C)C` [Peptide 14, βAlaKPRP YTPRP TSHPR PIRV] (H-[βAla]KPRPYTPRPTSHPRPIRV-OH; N-terminus assumed): the MIC is 100 µM (≈ 223 µg/mL) with Shigella sonnei; “NI at ≦100 μM” in the series on Bacillus thuringiensis; “NI at ≦100 μM” with Vibrio cholerae; “NI at ≦100 μM” in the series with Yersinia pestis KIM5; 25 µM (≈ 55.7 µg/mL) in the series with E. coli O157: H7; “NI at ≦100 μM” in [1]. In addition, the MIC in series [2] is 12.5 µM (≈ 27.8 µg/mL); with Pseudomonas auruginosa, “NI at ≦100 μM”; in series [3], “NI at ≦100 μM”; against Bacillus anthracis, “NI at ≦100 μM”; with Klebsiella pneumoniae, 100 µM (≈ 223 µg/mL); against Salmonella typhimurium it was 50 µM (≈ 111 µg/mL). Also, the minimum inhibitory concentration (MIC) was 12.5 µM (≈ 27.8 µg/mL) in the series with Salmonella enteritidis; 12.5 µM (≈ 27.8 µg/mL) in series [4]; “NI at ≦100 μM” against Bacillus globigii; 100 µM (≈ 223 µg/mL) in series [5]; 12.5 µM (≈ 27.8 µg/mL) against Salmonella montevideo; 25 µM (≈ 55.7 µg/mL) against Salmonella infantis. The MIC in [6] amounted to 3.38 µM (≈ 7.53 µg/mL); with Salmonella panama, 25 µM (≈ 55.7 µg/mL); against E. coli ATCC 11775, 3.1 µM (≈ 6.9 µg/mL); against Salmonella give, 100 µM (≈ 223 µg/mL).
As for “Gly-Lys-Pro-Arg-Pro-Tyr-Ser*-Pro-Arg-Pro-Thr-Ser-His-Pro-Arg-Pro-Ile-Arg-Val”, the figures for the fragment found result (in “mammalian serum”; in series [7]) were “metabolite lacking five amino terminal residues; also recorded: metabolite lacking two carboxy terminal residues” and “metabolites lacking five amino terminal residues; also recorded: metabolites lacking two carboxy terminal residues”, respectively.
